Reference: patent US20220009920A1 (GB005, Inc., priority 2020, published 2022)

How the values were obtained:
Test in all cases: Large panel kinase profiling
Type in all cases: biochemical
Details in all cases: 1 μM test article, 1 mM ATP
EPHB3 = molecular target: T1, EPHB3 (Homo sapiens, UniProt P54753)
T1 sequence (P54753 34-998): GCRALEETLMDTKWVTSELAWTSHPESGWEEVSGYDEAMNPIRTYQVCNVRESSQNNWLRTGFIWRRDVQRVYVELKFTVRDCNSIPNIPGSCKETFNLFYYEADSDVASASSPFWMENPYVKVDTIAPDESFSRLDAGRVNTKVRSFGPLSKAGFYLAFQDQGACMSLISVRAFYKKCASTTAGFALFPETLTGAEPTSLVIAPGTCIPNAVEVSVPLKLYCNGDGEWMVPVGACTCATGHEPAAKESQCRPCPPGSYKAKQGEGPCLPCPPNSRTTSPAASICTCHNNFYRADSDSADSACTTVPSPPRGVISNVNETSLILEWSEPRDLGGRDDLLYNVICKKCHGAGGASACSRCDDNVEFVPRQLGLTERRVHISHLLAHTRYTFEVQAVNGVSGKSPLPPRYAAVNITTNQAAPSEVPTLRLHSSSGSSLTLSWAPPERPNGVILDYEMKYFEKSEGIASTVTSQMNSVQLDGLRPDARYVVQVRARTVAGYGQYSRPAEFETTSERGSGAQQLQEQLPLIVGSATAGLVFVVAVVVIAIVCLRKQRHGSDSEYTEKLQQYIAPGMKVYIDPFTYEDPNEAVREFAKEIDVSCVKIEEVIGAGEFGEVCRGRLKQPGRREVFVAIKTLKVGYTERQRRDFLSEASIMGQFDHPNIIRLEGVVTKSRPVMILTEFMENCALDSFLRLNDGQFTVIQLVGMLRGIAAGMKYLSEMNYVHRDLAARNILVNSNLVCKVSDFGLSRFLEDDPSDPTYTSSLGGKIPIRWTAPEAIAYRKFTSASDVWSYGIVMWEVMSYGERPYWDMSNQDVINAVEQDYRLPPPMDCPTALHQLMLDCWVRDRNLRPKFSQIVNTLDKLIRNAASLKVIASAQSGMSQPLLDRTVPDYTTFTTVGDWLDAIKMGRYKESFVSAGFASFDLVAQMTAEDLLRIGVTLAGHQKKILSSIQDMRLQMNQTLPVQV
Summary of the method: (§1)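 Profiling across the panel relied on the PhosphoSens CSox-Sensor format. A compound concentration of 1 μM and an ATP level of 1 mM were used throughout.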

GRK3 = molecular target: T2, GRK3 (Homo sapiens, UniProt P35626)
T2 construct: AssayQuant Technologies, Inc. (service provider)
T2 sequence (P35626 1-688): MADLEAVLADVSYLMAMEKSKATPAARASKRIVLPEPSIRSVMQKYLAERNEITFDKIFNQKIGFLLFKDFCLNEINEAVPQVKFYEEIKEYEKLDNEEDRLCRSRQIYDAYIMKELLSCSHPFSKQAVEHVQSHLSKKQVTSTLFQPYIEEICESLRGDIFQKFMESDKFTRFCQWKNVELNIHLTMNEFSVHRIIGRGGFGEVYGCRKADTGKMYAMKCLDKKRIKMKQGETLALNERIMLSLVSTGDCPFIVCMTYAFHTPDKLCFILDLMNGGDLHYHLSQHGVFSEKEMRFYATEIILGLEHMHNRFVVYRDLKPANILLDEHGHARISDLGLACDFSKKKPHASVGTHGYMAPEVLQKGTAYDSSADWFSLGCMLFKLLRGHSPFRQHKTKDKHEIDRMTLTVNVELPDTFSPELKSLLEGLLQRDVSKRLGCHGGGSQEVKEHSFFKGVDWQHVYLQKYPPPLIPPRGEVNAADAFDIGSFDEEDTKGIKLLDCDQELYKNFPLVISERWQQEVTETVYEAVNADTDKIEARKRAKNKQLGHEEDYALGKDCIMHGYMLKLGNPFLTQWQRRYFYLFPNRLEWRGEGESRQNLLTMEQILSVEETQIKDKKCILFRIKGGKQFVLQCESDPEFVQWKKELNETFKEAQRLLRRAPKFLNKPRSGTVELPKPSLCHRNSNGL
Summary of the method: as §1

IKBKE/IKKE = molecular target: T3, IKBKE/IKKE (Homo sapiens, UniProt Q14164)
T3 construct: AssayQuant Technologies, Inc. (service provider)
T3 sequence (Q14164 1-716): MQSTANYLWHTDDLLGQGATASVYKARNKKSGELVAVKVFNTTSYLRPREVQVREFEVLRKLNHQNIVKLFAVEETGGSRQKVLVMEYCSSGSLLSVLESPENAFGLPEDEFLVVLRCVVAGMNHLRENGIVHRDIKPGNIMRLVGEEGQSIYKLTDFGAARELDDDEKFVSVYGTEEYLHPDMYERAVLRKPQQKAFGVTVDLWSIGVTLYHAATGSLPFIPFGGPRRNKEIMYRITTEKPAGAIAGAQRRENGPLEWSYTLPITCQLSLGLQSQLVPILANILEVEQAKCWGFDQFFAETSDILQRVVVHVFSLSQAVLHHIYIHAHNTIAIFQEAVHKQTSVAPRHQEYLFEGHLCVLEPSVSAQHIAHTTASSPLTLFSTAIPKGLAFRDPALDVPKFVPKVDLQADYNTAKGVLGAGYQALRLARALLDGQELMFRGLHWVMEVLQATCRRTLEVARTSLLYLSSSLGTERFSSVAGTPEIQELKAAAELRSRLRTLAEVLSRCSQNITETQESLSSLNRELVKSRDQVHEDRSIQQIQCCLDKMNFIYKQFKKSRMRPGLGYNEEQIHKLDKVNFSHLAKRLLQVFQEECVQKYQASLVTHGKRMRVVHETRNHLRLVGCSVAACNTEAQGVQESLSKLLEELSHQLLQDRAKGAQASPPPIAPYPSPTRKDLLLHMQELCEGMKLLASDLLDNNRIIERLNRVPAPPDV
Summary of the method: as §1

JAK1(JH1JH2) = molecular target: T4, JAK1(JH1JH2) (Homo sapiens, UniProt P23458)
T4 construct: JAK1(JH1JH2)
Summary of the method: as §1

PKN3 = PKN3 (Homo sapiens, UniProt Q6P5Z2)
Summary of the method: as §1

TYK2(JH1JH2) = molecular target: T5, TYK2(JH1JH2) (Homo sapiens, UniProt P29597)
T5 construct: TYK2(JH1JH2); AssayQuant Technologies, Inc. (contract laboratory that ran the panel)
Summary of the method: as §1

T4 sequence (P23458 561-1154 limits assumed, species assumed): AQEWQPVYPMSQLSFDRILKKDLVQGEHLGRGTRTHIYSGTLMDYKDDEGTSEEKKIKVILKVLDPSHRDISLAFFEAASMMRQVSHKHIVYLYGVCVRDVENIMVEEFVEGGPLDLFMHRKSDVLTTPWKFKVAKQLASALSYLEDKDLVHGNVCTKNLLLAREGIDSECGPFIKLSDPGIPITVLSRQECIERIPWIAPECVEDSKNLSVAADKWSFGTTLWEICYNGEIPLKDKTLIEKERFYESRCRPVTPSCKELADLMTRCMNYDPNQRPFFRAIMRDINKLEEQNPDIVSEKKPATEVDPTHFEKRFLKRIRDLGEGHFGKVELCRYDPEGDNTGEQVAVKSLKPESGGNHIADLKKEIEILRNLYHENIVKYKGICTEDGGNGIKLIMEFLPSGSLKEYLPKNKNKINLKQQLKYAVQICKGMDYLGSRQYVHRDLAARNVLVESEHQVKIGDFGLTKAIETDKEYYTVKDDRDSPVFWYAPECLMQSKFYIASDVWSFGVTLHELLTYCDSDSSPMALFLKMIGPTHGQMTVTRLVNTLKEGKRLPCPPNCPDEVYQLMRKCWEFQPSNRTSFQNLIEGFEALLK
T5 sequence (P29597 575-1187 limits assumed, species assumed): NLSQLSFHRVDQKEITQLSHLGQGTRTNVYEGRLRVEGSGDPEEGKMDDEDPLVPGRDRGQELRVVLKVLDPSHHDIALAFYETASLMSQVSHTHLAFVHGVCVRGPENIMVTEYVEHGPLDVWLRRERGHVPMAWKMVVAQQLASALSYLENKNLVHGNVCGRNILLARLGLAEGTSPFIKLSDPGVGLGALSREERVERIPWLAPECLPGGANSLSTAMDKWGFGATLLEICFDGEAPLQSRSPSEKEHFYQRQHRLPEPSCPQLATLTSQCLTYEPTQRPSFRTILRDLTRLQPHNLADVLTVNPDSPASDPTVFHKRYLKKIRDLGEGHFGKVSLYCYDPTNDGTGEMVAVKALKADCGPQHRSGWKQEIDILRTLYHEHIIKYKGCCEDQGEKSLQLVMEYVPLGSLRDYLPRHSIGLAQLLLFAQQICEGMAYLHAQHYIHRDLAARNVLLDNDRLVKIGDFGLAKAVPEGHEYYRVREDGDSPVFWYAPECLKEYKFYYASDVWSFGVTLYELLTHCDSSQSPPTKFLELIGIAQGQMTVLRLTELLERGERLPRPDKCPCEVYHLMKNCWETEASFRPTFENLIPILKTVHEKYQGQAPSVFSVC
PKN3, sequence (Q6P5Z2 whole entry, species assumed): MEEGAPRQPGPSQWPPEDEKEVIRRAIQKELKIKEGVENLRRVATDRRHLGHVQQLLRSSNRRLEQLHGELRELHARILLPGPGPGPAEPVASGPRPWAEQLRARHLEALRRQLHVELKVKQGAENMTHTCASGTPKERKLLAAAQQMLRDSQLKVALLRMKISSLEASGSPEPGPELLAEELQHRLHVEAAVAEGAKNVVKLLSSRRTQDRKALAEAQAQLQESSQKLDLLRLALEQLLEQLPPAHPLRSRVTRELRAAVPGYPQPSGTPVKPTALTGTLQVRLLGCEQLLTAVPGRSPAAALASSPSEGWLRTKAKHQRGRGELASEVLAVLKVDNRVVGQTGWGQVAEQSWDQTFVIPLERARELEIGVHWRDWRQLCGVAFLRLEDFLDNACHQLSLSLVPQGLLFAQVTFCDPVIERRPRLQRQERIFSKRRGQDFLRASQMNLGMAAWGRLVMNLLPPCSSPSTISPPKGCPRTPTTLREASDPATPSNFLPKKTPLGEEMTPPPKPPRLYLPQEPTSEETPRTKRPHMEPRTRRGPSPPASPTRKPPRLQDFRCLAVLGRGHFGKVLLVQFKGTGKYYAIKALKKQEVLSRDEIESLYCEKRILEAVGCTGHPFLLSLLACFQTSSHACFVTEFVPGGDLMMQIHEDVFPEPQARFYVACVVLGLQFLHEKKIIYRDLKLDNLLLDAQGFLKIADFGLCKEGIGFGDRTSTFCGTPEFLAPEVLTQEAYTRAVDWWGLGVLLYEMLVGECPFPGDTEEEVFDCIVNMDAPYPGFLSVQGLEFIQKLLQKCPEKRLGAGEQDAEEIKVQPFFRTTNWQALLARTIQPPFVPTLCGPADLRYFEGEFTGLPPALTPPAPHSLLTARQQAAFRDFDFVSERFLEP

Compound: C=CC(=O)N1CCCC(c2c(F)cc(C(N)=O)c3[nH]c4c(c23)CCCCC4)C1 (single isomer, unassigned) [Compound 5-6]
- inhibition at 1 µM (EPHB3): 17.6%
- inhibition at 1 µM (GRK3): -25.6%
- inhibition at 1 µM (IKBKE/IKKE): 3.4%
- inhibition at 1 µM (JAK1(JH1JH2)): 8.5%
- inhibition at 1 µM (PKN3): 5.7%
- inhibition at 1 µM (TYK2(JH1JH2)): 18.9%

Compound: C=CC(=O)N1CCC[C@@H](c2c(F)cc(C(N)=O)c3[nH]c4c(c23)CCC4)C1 [Compound 10-2, (S)-8-(1-acryloylpiperidin-3-yl)-7-fluoro-1,2,3,4-tetrahydrocyclo-penta[b]indole-5-carboxamide]
- inhibition at 1 µM (EPHB3): -10.1%
- inhibition at 1 µM (GRK3): -42.7%
- inhibition at 1 µM (IKBKE/IKKE): -12.8%
- inhibition at 1 µM (JAK1(JH1JH2)): 14.8%
- inhibition at 1 µM (PKN3): 3.5%
- inhibition at 1 µM (TYK2(JH1JH2)): 28.6%

Compound: C=CC(=O)N1CCC[C@@H](c2c(F)cc(C(N)=O)c3[nH]c4c(c23)CC2(CC4)CC2)C1 [Compound 6-2, (S)-5-(1-acryloylpiperidin-3-yl)-6-fluoro-1,2,4,9-tetrahydrospiro[carbazole-3,1′-cyclopropane]-8-carboxamide]
- inhibition at 1 µM (EPHB3): -24.4%
- inhibition at 1 µM (GRK3): -48.3%
- inhibition at 1 µM (IKBKE/IKKE): -18%
- inhibition at 1 µM (JAK1(JH1JH2)): 29.4%
- inhibition at 1 µM (PKN3): -9.4%
- inhibition at 1 µM (TYK2(JH1JH2)): -27.1%
